Experimental data from paper PMC6749236, “Synthesis of Novel 2-(Het)arylpyrrolidine Derivatives and Evaluation of Their Anticancer and Anti-Biofilm Activity” (Molecules, 2019).
Values joined by “and” are separate entries in the source; they are usually repeats but may differ in a detail not shown here. Identical values can stand only once. Marks after values point to notes of the source that are not given here.

Legend:
Chang liver cell line = assay: Cytotoxicity assay (Cytell Cell Imaging), normal cell line; type: cell-based; settings: Homo sapiens, read-out: IC50 Normal Cell Line Chang Liver
M-Hela = assay: Cytotoxicity assay (Cytell Cell Imaging, DAPI/propidium iodide), cancer cell line; type: cell-based; settings: Homo sapiens, M-HeLa, read-out: IC50 Cancer Cell Line M-Hela
[1] = tested on: Acinetobacter calcoaceticus VKPM B-10353; assay: Biofilm formation, crystal violet assay; type: cell-based; settings: A. calcoaceticus VKPM B-10353; for Biofilm Formation: control = 100%; for Biofilm formation with respect to control, over the investigated concentrations: 1 × 10^−9–1 × 10^−5 M
Experimental: (§1) Bacterial strains and cultivation conditions. For the detection of biofilms, formation strains Vibrio aquamarinus DSM 26054 and Acinetobacter calcoaceticus VKPM B-10353 were used. These strains form biofilms, making them useful for studying biofilms.
(§2) The bacterial strains Acinetobacter calcoaceticus VKPM B-10353, E. coli MG1655 (pRecA-lux), and E. coli MG1655 (pSoxS-lux) were cultivated in Luria–Bertani (LB) medium under constant shaking to early exponential phase at 37 °C. Cells were used immediately for stress induction tests. One hundred micrograms of ampicillin per milliliter were added into LB medium at cultivation of E. coli MG1655 (pRecA-lux) and E. coli MG1655 (pSoxS-lux). Strain V. aquamarinus DSM 26054 was grown in LB medium supplemented with 3% NaCl.
(§3) The test compounds were dissolved in DMSO to the concentration of 1 × 10^−2 M. Then, they were diluted with ethanol. The control solutions were analogous dilutions of DMSO in ethanol. The tested compounds were also compared with the standard antibiotic azithromycin. Azithromycin was dissolved in DMSO to the concentration of 5 × 10^−3 M and then diluted with deionized water.
(§4) Test system for evaluation of biofilms production. To quantify the formation of biofilms, the crystal violet assay was used, with some modifications. The necessary concentrations of the test compounds were prepared as described above.
(§5) V. aquamarinus DSM 26054 was cultivated for 24 h in LB medium supplemented with 3% NaCl in the Innova 40R shaker incubator (New Brunswick Scientific, USA) at 25 °C and 200 rpm. A. calcoaceticus VKPM B-10353 was cultivated for 24 h in LB medium in the Innova 40R shaker incubator (New Brunswick Scientific, Enfield, CT, USA) at 30 °C and 200 rpm. Then, the suspensions of the daily culture of V. aquamarinus DSM 26054 and A. calcoaceticus VKPM B-10353 were diluted with LB medium supplemented with 3% NaCl to the density of 1 × 10^8 cells/mL.
(§6) The resulting suspension (180 μL) was added to the wells of a polystyrene microplate (Nuova Aptaca, Canelli, Italy). To some of the wells, 20 μL of the test substances at various concentrations were added. Since solvents used could also influence the biofilm formation, 20 μL of the appropriate solvent was added to the other part of the wells at same dilutions (control). Six replicates were done for each treatment and control. The microplate was covered with a lid and wrapped with Parafilm (Bemis Company, Inc., Oshkosh, WI, USA).
(§7) After incubation at 25 °C for 72 h, biofilms were stained. The contents in the wells were removed by means of a dispenser. The wells were then carefully washed three times with 250 μL of sterile saline. The microplates were shaken to remove all non-adherent bacteria. Biofilms were fixed with 200 μL of 96% ethanol for 15 min. After the microplates had dried in air, 200 μL of 0.5% crystal violet was introduced into the wells. After 10 min, the dye was removed. The excess dye was removed by washing with water three times. After the microplates were air-dried, the dye in the wells bound to biofilms was dissolved with 200 μL of 96% ethanol. The extraction level (absorption) of crystal violet by ethanol was measured after 60 minutes at a wavelength of 570 nm using a FLUOstar Omega microplate reader (BMG Labtech, Offenburg, Germany) in optical density units (OD570). The intensity of biofilm formation directly corresponds to the intensity of staining of the contents of the wells with the dye. Biofilm formation was determined by the difference between the mean OD readings obtained in the presence of compounds and the control.
(§8) Each experiment was performed in triplicate. The values were expressed as mean + SD. Student’s t-test was used to compare these values. Differences were considered statistically significant at p < 0.05.

[2] = tested on: Vibrio aquamarinus DSM 26054; assay: Biofilm formation, crystal violet assay; type: cell-based; settings: V. aquamarinus DSM 26054, control = 100%
Experimental: as §1, §2, §3, §4, §5, §6, §7, §8

P388 murine leukemia = assay: In vivo anti-tumor activity, i.p. implanted leukemia; design: species or system BDF1 hybrid male mice; settings: for ILS / MST ± SD: P388; for Survival: day 60
Experimental: Animals. In vivo experiments were performed using the BDF1 hybrid male mice of 22–24 g weight. The experimental animals were caged in a standard vivarium in 12 h light conditions with free access to food and water. All manipulations with the animals were performed in accordance with the solutions of the Commission on Bioethics of the Institute of Problems of Chemical Physics, Russian Academy of Sciences (IPCP RAS).
Anti-tumor activity. The tumors were transplanted intraperitoneally (i.p.) in accordance with a standard procedure inoculum: 10^6 tumor cells in isotonic solution of NaCl, V = 0.2 cm^3 (leukemia P388). Original compounds were injected intraperitoneally as aqueous solution. Doses from 18 to 83 mg/kg/day and the mode of administration on days 1, 5, and 9 after transplantation were used. In each experiment, a single group of tumor-bearing animals not injected with the compounds served as the control group. Each group consisted of six mice. The animals were observed daily for survival for a minimum of 60 days. The efficacy of the therapy against leukemia (defined as increase in lifespan—ILS) was assessed as the percentage of the median survival time (MST) of the treated group (t) to that of the control group (c): ILS(%) = (MSTt/MSTc) × 100.
Statistics. The experiments were carried out in triplicate. The data are presented in the form X ± SD (mean ± standard deviation). The significance of the differences between the groups was assessed using Student’s t-test. Values of p < 0.05 were considered statistically significant. The data were processed statistically using GraphPad Prism.

[3] = tested on: Escherichia coli MG1655 (pRecA-lux); assay: Genotoxicity, bacterial lux-biosensor; type: cell-based
Text: (§9) E. coli MG1655 (pRecA-lux) was used for the evaluation of the genotoxicity of the synthesized compounds. The biosensor with the PrecA promotor fixes the presence of the factors causing damage of DNA in a cell. The biosensor E. coli MG1655 (pSoxS-lux) was used for the evaluation of prooxidant activity. The biosensor with the PsoxS promoter fixes the production of superoxide anion and NO [75]. Bioluminescent strains were obtained by the transformation of E. coli MG1655 by hybrid plasmids pRecA-lux, pSoxS-lux. The gene cassette luxCDABE Photorhabdus luminescens under the control PrecA promoters was used in this biosensor. This plasmid was created on the basis of pBR322 and contained a selective marker of ampicillin resistance (Amp gene). The strains were kindly furnished by Manukhov I.V., Federal State Unitary Enterprise “GosNIIGenetika”).
as §2
(§10) Biosensors assay procedure. The detailed protocol of toxicity testing by means of a bacterial lux-biosensors is described in the article.
(§11) Calculation. The criterion of toxic influence was bioluminescence intensity change of the test object in the researched sample in comparison with the control sample.
(§12) The induction factor (I) was defined as the relation of luminescence intensity of a lux-biosensor suspension containing tested sample (Lc) to the luminescence intensity of a lux-biosensor control suspension (Lk): I = Lc/Lk.
If at significant differences from control induction factor values were ≤2, the detected genotoxic effect was evaluated as “weak”, if they were in the range from 2 to 10 as “medium”, and above 10 as “strong”. All the experiments were carried out three times independently.
(§13) Difference reliability of bioluminescence in experiment from control value was estimated by t-criterion with the help of Excel software. The conclusions about sample toxicity were made at p < 0.05.

[4] = tested on: E. coli MG1655 (pSoxS-lux); assay: Prooxidant activity, bacterial lux-biosensor; type: cell-based, Escherichia coli
Text: as §9, §2, §10, §11, §12, §13

[5] = 18 mg/kg/day i.p., days 1, 5, 9
[6] = 26 mg/kg/day i.p., days 1, 5, 9
[7] = 40 mg/kg/day i.p., days 1, 5, 9
[8] = 55 mg/kg/day i.p., days 1, 5, 9
[9] = 83 mg/kg/day i.p., days 1, 5, 9

NC(=O)N1CCCC1c1cc2c(cc1O)OCO2 (centres unmarked) [5a, 2-(6-Hydroxybenzo[d][1,3]dioxol-5-yl)pyrrolidine-1-carboxamide]
IC50 (Chang liver cell line): > 100 µM
IC50 (M-Hela): > 100 µM
melting point: 206 to 207 °C

CC[C@H]1OC(=O)[C@H](C)[C@@H](O[C@H]2C[C@@](C)(OC)[C@@H](O)[C@H](C)O2)[C@H](C)[C@@H](O[C@@H]2O[C@H](C)C[C@H](N(C)C)[C@H]2O)[C@](C)(O)C[C@@H](C)CN(C)[C@H](C)[C@@H](O)[C@]1(C)O [Azithromycin, reference compound]
Biofilm Formation ([1]; 1 × 10^−5 M): 101.79%
Biofilm Formation ([1]; 1 × 10^−6 M): 106.07%
Biofilm Formation ([1]; 1 × 10^−7 M): 105.71%
Biofilm Formation ([1]; 1 × 10^−8 M): 96.07%
Biofilm Formation ([1]; 1 × 10^−9 M): 95.00%
Biofilm formation with respect to control, over the investigated concentrations [1]: not detected
Biofilm Formation ([2]; 1 × 10^−5 M): 81.5% and 81.50 * %
Biofilm Formation ([2]; 1 × 10^−6 M): 103.80%
Biofilm Formation ([2]; 1 × 10^−7 M): 99.39%
Biofilm Formation ([2]; 1 × 10^−8 M): 102.43%
Biofilm Formation ([2]; 1 × 10^−9 M): 103.42%

Cc1cc(O)c(C2CCCN2C(=O)Nc2ccc(Br)cc2)c(=O)o1 (centres unmarked) [7d, N-(4-Bromophenyl)-2-(4-hydroxy-6-methyl-2-oxo-2H-pyran-3-yl)pyrrolidine-1-carboxamide]
IC50 (Chang liver cell line): > 100 µM
IC50 (M-Hela): > 100 µM

CN(C)CCNC(=O)N1CCCC1c1c(O)c2ccccc2oc1=O.O=C(O)C(F)(F)F (centres unmarked) [8h, 2-(2-(4-Hydroxy-2-oxo-2H-chromen-3-yl)pyrrolidine-1-carboxamido)-N,N-dimethylethan-1-aminium 2,2,2-trifluoroacetate]
IC50 (Chang liver cell line): > 100 µM
ILS (P388 murine leukemia; [5]): 93%
MST ± SD (P388 murine leukemia; [5]): 19.3 ± 8.1 days
Survival (P388 murine leukemia; 18 mg/kg/day): 17%
ILS (P388 murine leukemia; [6]): 107%
MST ± SD (P388 murine leukemia; [6]): 20.7 ± 8.0 days
Survival (P388 murine leukemia; 26 mg/kg/day): 17%
ILS (P388 murine leukemia; [7]): 32%
MST ± SD (P388 murine leukemia; [7]): 13.2 ± 1.6 days
Survival (P388 murine leukemia; 40 mg/kg/day): 0%
ILS (P388 murine leukemia; [8]): 98%
MST ± SD (P388 murine leukemia; [8]): 19.8 ± 8.1 days
Survival (P388 murine leukemia; 55 mg/kg/day): 17%
ILS (P388 murine leukemia; [9]): 162%
MST ± SD (P388 murine leukemia; [9]): 26.2 ± 10.7 days
Survival (P388 murine leukemia; 83 mg/kg/day): 33%
antitumor (anti-leukemic) activity, in words (P388 murine leukemia; P388, dose range 18–83 mg/kg/day i.p., days 1, 5, 9): pronounced anti-leukemic activity
IC50 (M-Hela): > 100 µM

O=[N+]([O-])c1c(Cl)cc2c(no[n+]2[O-])c1Nc1cccc(O)c1 [compound 4, 6-Chloro-4-((3-hydroxyphenyl)amino)-5-nitrobenzo[c][1,2,5]oxadiazole 1-oxide]
DNA-damaging property, in words ([3]; 10^−9–10^−5 M, with and without S9): do not belong to the class of DNA-damaging substances
Genotoxicity (induction factor, I) ([3]; with metabolic activation (+S9), 10^−5 M): 1.11 ± 0.01
Genotoxicity (induction factor, I) ([3]; with metabolic activation (+S9), 10^−6 M): 1.28 ± 0.04
Genotoxicity (induction factor, I) ([3]; with metabolic activation (+S9), 10^−7 M): 1.18 ± 0.01
Genotoxicity (induction factor, I) ([3]; with metabolic activation (+S9), 10^−8 M): 1.11 ± 0.02
Genotoxicity (induction factor, I) ([3]; with metabolic activation (+S9), 10^−9 M): 1.19 ± 0.01
Genotoxicity (induction factor, I) ([3]; without metabolic activation (-S9), 10^−5 M): 1.10 ± 0.00
Genotoxicity (induction factor, I) ([3]; without metabolic activation (-S9), 10^−6 M): 1.27 ± 0.01
Genotoxicity (induction factor, I) ([3]; without metabolic activation (-S9), 10^−7 M): 1.14 ± 0.02
Genotoxicity (induction factor, I) ([3]; without metabolic activation (-S9), 10^−8 M): 1.27 ± 0.07
Genotoxicity (induction factor, I) ([3]; without metabolic activation (-S9), 10^−9 M): 1.21 ± 0.04
Biofilm Formation ([1]; 1 × 10^−5 M): 149.22* %
Biofilm Formation ([1]; 1 × 10^−6 M): 97.99%
Biofilm Formation ([1]; 1 × 10^−7 M): 78.63 * %
Biofilm Formation ([1]; 1 × 10^−8 M): 62.12 * %
Biofilm Formation ([1]; 1 × 10^−9 M): 86.67 * %
Biofilm formation with respect to control, over the investigated concentrations [1]: both suppressing and stimulating
Biofilm Formation ([2]; 1 × 10^−5 M): 96.57%
Biofilm Formation ([2]; 1 × 10^−6 M): 43.56 * %
Biofilm Formation ([2]; 1 × 10^−7 M): 11.34 * %
Biofilm Formation ([2]; 1 × 10^−8 M): 9.31 * %
Biofilm Formation ([2]; 1 × 10^−9 M): 66.58%
Prooxidant activity (induction factor) ([4]; 10^−5 M): 1.64 ± 0.04
Prooxidant activity (induction factor) ([4]; 10^−6 M): 1.54 ± 0.07
Prooxidant activity (induction factor) ([4]; 10^−7 M): 1.74 ± 0.14
Prooxidant activity (induction factor) ([4]; 10^−8 M): 2.08 ± 0.05
Prooxidant activity (induction factor) ([4]; 10^−9 M): 1.85 ± 0.10
effect of superoxide-anion radical or NO level increase, in words ([4]; 10^−9–10^−8 M and 10^−7–10^−5 M): weak effect
